This note sets out measurements from patent US20070049593A1 (priority 2004, published 2007).

Counter-ions that a name gives are not always drawn.

This assay addresses T1, HCV polymerase (Hepatitis C virus genotype 1b, UniProt P26663).
T1 construct: a region encoding NS5B (J Virol 1991 March, 65(3), 1105-13, 544 amino acids after deletion of 47 amino acids on the C-terminal); 6xHis (C); made in house; host or cells: Escherichia coli
Nature of the assay: biochemical. Also on record: species or system HCV BK strain. The source says: The evaluation of the HCV polymerase inhibitory activity of the compound of the present invention is explained in the following. This polymerase is an enzyme coded for by the non-structural protein region called NS5B on the genome RNA of HCV (EMBO J., 15:12-22, 1996).
Using, as a template, a cDNA clone corresponding to the full length genome RNA of HCV BK strain obtained from the blood of a patient with hepatitis C, a region encoding NS5B (J Virol 1991 March, 65(3), 1105-13, 544 amino acids after deletion of 47 amino acids on the C-terminal) was amplified by PCR. The objective gene was prepared by adding a 6 His tag {base pair encoding 6 continuous histidine (His)}to the 3′ end thereof and transformed to Escherichia coli. The Escherichia coli capable of producing the objective protein was cultured. The obtained cells were suspended in a buffer solution and crushed in a microfluidizer.
Using a synthetic primer designed based on the sequence of HCV genomic 3′ untranslated region, a DNA fragment (148 bp) containing polyU and 3′X sequence was entirely synthesized and cloned into plasmid pBluescript SK II(+) (Stratagene). The cDNA encoding full length NS5B, which was prepared in i) above, was digested with restriction enzyme KpnI to give a cDNA fragment containing the nucleotide sequence of from the restriction enzyme cleavage site to the termination codon. This cDNA fragment was inserted into the upstream of 3′ untranslated region of the DNA in pBluescript SK II(+) and ligated. The about 450 bp inserted DNA sequence was used as a template in the preparation of substrate RNA.
RNA was synthesized (37° C., 3 hr) by run-off method using this purified DNA as a template, a promoter of pBluescript SK II(+), MEGAscript RNA synthesis kit (Ambion) and T7 RNA polymerase. DNase I was added and the mixture was incubated for 1 hr. The template DNA was removed by decomposition to give a crude RNA product.
A test substance (compound of the present invention) and a reaction mixture (30 μl) having the following composition were reacted at 25° C. for 90 min.
10% Trichloroacetic acid at 4° C. and 1% sodium pyrophosphate solution (150 μl) were added to this reaction mixture to stop the reaction. The reaction mixture was left standing in ice for 15 min to insolubilize RNA. This RNA was trapped on a glass filter (Whatman GF/C and the like) upon filtration by suction. This filter was washed with a solution containing 1% trichloroacetic acid and 0.1% sodium pyrophosphate, washed with 90% ethanol and dried. A liquid scintillation cocktail (Packard) was added and the radioactivity of RNA synthesized by the enzyme reaction was measured on a liquid scintillation counter.
The HCV polymerase inhibitory activity (IC50) of the compound of the present invention was calculated from the values of radioactivity of the enzyme reaction with and without the test substance.
Reaction mixture: HCV polymerase (0.5 μg/ml) obtained in i), substrate RNA (5 μg/ml) obtained in ii), ATP (50 μM), GTP (50 μM), CTP ([…]), UTP (2 μM), [5,6-^3H]UTP (46 Ci/mmol (Amersham), 1 μCi) 20 mM Tris-HCl (pH 7.5), EDTA (1 mM), MgCl2 (5 mM), NaCl (50 mM), DTT (1 mM), BSA (0.01%)

T1 sequence (P26663 2420-2963): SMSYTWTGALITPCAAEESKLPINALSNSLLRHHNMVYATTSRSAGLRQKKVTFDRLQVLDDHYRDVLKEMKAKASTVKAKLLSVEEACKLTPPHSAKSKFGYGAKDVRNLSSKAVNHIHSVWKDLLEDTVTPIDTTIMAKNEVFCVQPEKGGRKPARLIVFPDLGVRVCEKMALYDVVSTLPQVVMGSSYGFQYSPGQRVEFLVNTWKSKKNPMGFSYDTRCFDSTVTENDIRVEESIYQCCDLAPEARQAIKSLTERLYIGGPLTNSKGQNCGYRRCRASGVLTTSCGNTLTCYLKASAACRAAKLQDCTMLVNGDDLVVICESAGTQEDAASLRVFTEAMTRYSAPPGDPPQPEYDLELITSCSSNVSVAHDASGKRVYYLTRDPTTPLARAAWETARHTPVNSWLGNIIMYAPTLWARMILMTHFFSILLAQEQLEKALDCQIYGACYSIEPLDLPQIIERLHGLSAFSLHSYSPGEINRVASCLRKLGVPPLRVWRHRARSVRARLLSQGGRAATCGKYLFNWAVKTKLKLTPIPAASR

Consider `CN(C)C(=O)N1CCN(CCN2CCn3c(c(C4CCCCC4)c4ccc(C(=O)O)cc43)-c3ccccc32)CC1` [Example 1-87, 13-cyclohexyl-5-[2-(4-dimethylcarbamoylpiperazin-1-yl)ethyl]-6,7-dihydro-5H-benzo[5,6][1,4]diazepino[7,1-a]indole-10-carboxylic acid dihydrochloride], for which the IC50 is below 100 nM.
The figure for `CN1CCC(N(C)CCN2CCn3c(c(C4CCCCC4)c4ccc(C(=O)O)cc43)-c3ccccc32)CC1` [Example 1-282, 13-cyclohexyl-5-{2-[N-methyl-N-(1-methylpiperidin-4-yl)amino]ethyl}-6,7-dihydro-5H-benzo[5,6][1,4]diazepino[7,1-a]indole-10-carboxylic acid dihydrochloride] is below 100 nM; for `O=C(O)c1ccc2c(C3CCCCC3)c3n(c2c1)CCN(CC(=O)N1CCCC2CCCCC21)c1ccccc1-3` (stereo not shown) [Example 1-139, 13-cyclohexyl-5-[2-(octahydroquinolin-1-yl)-2-oxoethyl]-6,7-dihydro-5H-benzo[5,6][1,4]diazepino[7,1-a]indole-10-carboxylic acid monohydrochloride] it is below 100 nM.
Under `COc1ccc2c(c1)OCCn1c-2c(C2CCCCC2)c2ccc(C(=O)NC3(c4nc5ccc(O)cc5[nH]4)CCC3)cc21` [Example 2-439, N-[1-(6-hydroxy-1H-benzimidazol-2-yl)cyclobutyl]-12-cyclohexyl-3-methoxy-6,7-dihydro-5-oxa-7a-azadibenzo[a,e]azulene-9-carboxamide] stands below 100 nM; under `CC1CCCN(CCN2CCn3c(c(C4CCCCC4)c4ccc(C(=O)O)cc43)-c3ccccc32)C1` (stereo not shown) [Example 1-143, 13-cyclohexyl-5-[2-(3-methylpiperidin-1-yl)ethyl]-6,7-dihydro-5H-benzo[5,6][1,4]diazepino[7,1-a]indole-10-carboxylic acid dihydrochloride], below 100 nM.
Regarding `Cc1cc(COc2ccc3c(c2)N(CCN(C)C)CCn2c-3c(C3CCCCC3)c3ccc(C(=O)O)cc32)no1` [Example 1-374, 13-cyclohexyl-5-(2-dimethylaminoethyl)-3-(5-methylisoxazol-3-ylmethoxy)-6,7-dihydro-5H-benzo[5,6][1,4]diazepino[7,1-a]indole-10-carboxylic acid dihydrochloride], the IC50 was below 100 nM.
The figure for `CCCN1CCCC(CCN2CCn3c(c(C4CCCCC4)c4ccc(C(=O)O)cc43)-c3ccc(Cl)cc32)C1` (stereo not shown) [Example 1-230, 3-chloro-13-cyclohexyl-5-[2-(1-propylpiperidin-3-yl)ethyl]-6,7-dihydro-5H-benzo[5,6][1,4]diazepino[7,1-a]indole-10-carboxylic acid dihydrochloride] is below 100 nM; for `COc1ccc2c(c1)OCCn1c-2c(C2CCCCC2)c2ccc(C(=O)N[C@@H](Cc3ccc(NS(C)(=O)=O)cc3)C(=O)O)cc21` [Example 2-341, (S)-2-[(12-cyclohexyl-3-methoxy-6,7-dihydro-5-oxa-7a-azadibenzo[a,e]azulene-9-carbonyl)amino]-3-(4-methanesulfonylaminophenyl)propionic acid] it is below 100 nM; for `COc1ccc2c(c1)OCCn1c-2c(C2CCCCC2)c2ccc(C(=O)N[C@H](C#N)Cc3ccc(O)cc3)cc21` [Example 2-441, N—[(S)-cyano-(4-hydroxybenzyl)-methyl]-12-cyclohexyl-3-methoxy-6,7-dihydro-5-oxa-7a-azadibenzo[a,e]azulene-9-carboxamide] it is below 100 nM.
The figure for `CC(C)(Cc1ccc(C(=O)O)cc1)NC(=O)c1ccc2c(C3CCCCC3)c3n(c2c1)CCOc1ccccc1-3` [Example 2-216, 4-{2-[(12-cyclohexyl-6,7-dihydro-5-oxa-7a-azadibenzo[a,e]azulene-9-carbonyl)amino]-2-methylpropyl}benzoic acid] is 100 to 1000 nM.
Under `COc1ccc2c(c1)N(CCN1CCCOCC1)CCn1c-2c(C2CCCCC2)c2ccc(C(=O)O)cc21` [Example 1-510, 13-cyclohexyl-3-methoxy-5-[2-(1,4-oxazepan-4-yl)ethyl]-6,7-dihydro-5H-benzo[5,6][1,4]diazepino[7,1-a]indole-10-carboxylic acid dihydrochloride] stands below 100 nM.
Compound `Cc1ccc2c(c1)N(C)CCn1c-2c(C2CCCCC2)c2ccc(C(=O)O)c(Cl)c21` [Example 1-452, 9-chloro-13-cyclohexyl-3,5-dimethyl-6,7-dihydro-5H-benzo[5,6][1,4]diazepino[7,1-a]indole-10-carboxylic acid] yielded an IC50 below 100 nM.
For `CC(=O)N(C)c1ccc(N2CCOCC2)c(COc2ccc3c(c2)OCCn2c-3c(C3CCCCC3)c3ccc(C(=O)O)nc32)c1` [Example 7-6, 3-[5-(N-acetyl-N-methylamino)-2-(morpholin-4-yl)benzyloxy]-12-cyclohexyl-6,7-dihydro-5-oxa-7a,8-diazadibenzo[a,e]azulene-9-carboxylic acid dihydrochloride], the IC50 was below 100 nM.
`O=C(O)c1ccc2c(C3CCCCC3)c3n(c2c1)CCOc1c-3cccc1N(CCOCc1ccccc1)CCN1CCCCC1` [Example 2-256, 4-{N-(2-benzyloxyethyl)-N-[2-(piperidin-1-yl)ethyl]amino}-12-cyclohexyl-6,7-dihydro-5-oxa-7a-azadibenzo[a,e]azulene-9-carboxylic acid dihydrochloride] registered an IC50 below 100 nM.
Take `CCN1CCN(C(=O)CN2CCn3c(c(C4CCCCC4)c4ccc(C(=O)NCCO)cc43)-c3ccccc32)CC1` [Example 1-85, 13-cyclohexyl-5-[2-(4-ethylpiperazin-1-yl)-2-oxoethyl]-N-(2-hydroxyethyl)-6,7-dihydro-5H-benzo[5,6][1,4]diazepino[7,1-a]indole-10-carboxamide]: the concentration for half-maximal inhibition (IC50) was below 100 nM.
Under `COC(=O)c1ccc2nc(C(C)(C)NC(=O)c3ccc4c(C5CCCCC5)c5n(c4c3)CCOc3ccccc3-5)n(C)c2c1` [Example 2-336, methyl 2-{1-[(12-cyclohexyl-6,7-dihydro-5-oxa-7a-azadibenzo[a,e]azulene-9-carbonyl)amino]-1-methylethyl}-3-methyl-3H-benzimidazole-5-carboxylate] stands below 100 nM; under `CC(C)N1CCC(OCCN2CCn3c(c(C4CCCCC4)c4ccc(C(=O)O)cc43)-c3ccc(Cl)cc32)CC1` [Example 1-318, 3-chloro-13-cyclohexyl-5-[2-(1-isopropylpiperidin-4-yloxy)ethyl]-6,7-dihydro-5H-benzo[5,6][1,4]diazepino[7,1-a]indole-10-carboxylic acid dihydrochloride], below 100 nM.
Under `COc1ccc2c(c1)OCCn1c-2c(C2CCCCC2)c2ccc(C(=O)NC(Cc3ccc(O)cc3)C(C)C)cc21` (stereo not shown) [Example 2-436, N-[1-(4-hydroxybenzyl)-2-methylpropyl]-12-cyclohexyl-3-methoxy-6,7-dihydro-5-oxa-7a-azadibenzo[a,e]azulene-9-carboxamide] stands below 100 nM.
Under `CC(=O)N1CCC(N(C)CCN2CCn3c(c(C4CCCCC4)c4ccc(C(=O)O)cc43)-c3ccccc32)CC1` [Example 1-279, 5-{2-[N-(1-acetylpiperidin-4-yl)-N-methylamino]ethyl}-13-cyclohexyl-6,7-dihydro-5H-benzo[5,6][1,4]diazepino[7,1-a]indole-10-carboxylic acid monohydrochloride] stands below 100 nM.
